The data set can be described thus: RP, Waters ACQUITY UPLC BEH C18, 100 × 2.1 mm, 1.7 µm, 0.3 mL/min, estimated dead time 0.73 min; A: water + 0.1% formic acid, pH 3; B: methanol + 0.1% formic acid, pH 3; gradient (min/%B) 0/10 14/90 16/90 18/10. The following applies: stereoisomer not certain.
In the case of `COC(=O)Nc1nc2ccccc2[nH]1` [Carbendazim], the LC retention time is 3.42 min.

As for `COC(=O)c1c(Cl)nn(C)c1S(=O)(=O)NC(=O)Nc1nc(OC)cc(OC)n1` [Halosulfuron methyl], the LC retention time was 7.16 min.

As for `CCC(c1ccc(O)cc1)C(CC)c1ccc(O)cc1` (centres undefined) [Hexestrol], the LC retention time is 11.3 min.

Turning to `CCC(C)C1OC2(C=CC1C)CC1CC(CC=C(C)C(OC3CC(OC)C(OC4CC(OC)C(NC)C(C)O4)C(C)O3)C(C)C=CC=C3COC4C(O)C(C)=CC(C(=O)O1)C34O)O2` (centres undefined) [Emamectin B1a], the LC retention time is 13.8 min.

`CCS(=O)Cc1ccccc1OC(=O)NC` (centres undefined) [Ethiofencarb sulfoxide]: the LC retention time is 4.6 min.

`CCOc1cc(OP(=S)(OC)OC)nc(CC)n1` [Etrimfos]: the LC retention time is 11.6 min.

For the compound `COCCOc1ccccc1S(=O)(=O)NC(=O)Nc1nc(OC)nc(OC)n1` [Cinosulfuron], the LC retention time was 6.25 min.

For the compound `CCOc1cc(C(C)(C)C)ccc1C1COC(c2c(F)cccc2F)=N1` (centres undefined) [Etoxazole], the LC retention time is 13.5 min.

Regarding `CNC(=O)ON=CC(C)(C)S(C)=O` (centres undefined) [Aldicarb sulfoxide], the LC retention time is 2.54 min.

Turning to `Clc1ccc(C2(Cn3cncn3)CC(Br)CO2)c(Cl)c1` (centres undefined) [Bromuconazole I], the LC retention time was 10.6 min.

As for `CON=C(Cc1cccnc1)c1ccc(Cl)cc1Cl` (single isomer, unassigned; isomer 1) [Pyrifenox ISOMER 1], the LC retention time is 10.2 min.

Regarding `COC(=O)C1C2CCC(CC1OC(=O)c1ccccc1)N2` (centres undefined) [Norcocaine], the LC retention time is 6.29 min.

As for `CC1Cc2c(Cl)cc(C(=O)NC(Cc3ccccc3)C(=O)O)c(O)c2C(=O)O1` (centres undefined) [Ochratoxin A], the LC retention time is 9.15 min.

Turning to `CCOP(=S)(Oc1ccc(C#N)cc1)c1ccccc1` (centres undefined) [Cyanofenphos], the LC retention time is 11.7 min.

For the compound `O=C1OCCN1N=Cc1ccc([N+](=O)[O-])o1` [Furazolidone], the LC retention time was 2.96 min.

Regarding `CCOC1Oc2ccc(OS(C)(=O)=O)cc2C1(C)C` (centres undefined) [Ethofumesate], the LC retention time is 9.89 min.

Regarding `COc1cc2c(c3oc(=O)c4c(c13)CCOC4=O)C1CCOC1O2` (centres undefined) [Aflatoxin G2], the LC retention time was 6.71 min.

For `CCCCC1C(=O)N(c2ccccc2)N(c2ccccc2)C1=O` [Phenylbutazone], the LC retention time was 11.6 min.

Regarding `CCC(C)(CC)c1cc(NC(=O)c2c(OC)cccc2OC)on1` [Isoxaben], the LC retention time was 10.4 min.

In the case of `CCCCc1c(C)nc(NCC)[nH]c1=O` [Ethirimol], the LC retention time was 8.99 min.

Take `CCN1CCN(c2cc3c(cc2F)c(=O)c(C(=O)O)cn3C2CC2)CC1` [Enrofloxacin]: the LC retention time is 4.58 min.

As to `CCN(C(=O)SCc1ccccc1)C(C)C(C)C` (centres undefined) [Esprocarb], the LC retention time was 12.8 min.

Turning to `CC(C)Cc1ccc(C(C)C(=O)O)cc1` (centres undefined) [Ibuprofen], the LC retention time is 12.4 min.

As for `Cc1cccc(C)c1N(Cn1cccn1)C(=O)CCl` [Metazachlor], the LC retention time was 8.95 min.

With `Cc1cccc(C)c1N(C(=O)CCl)C1CCOC1=O` (centres undefined) [Ofurace], the LC retention time was 7.69 min.

`CC(C)NC(=O)N1CC(=O)N(c2cc(Cl)cc(Cl)c2)C1=O` [Iprodione]: the LC retention time was 11.9 min.

On to `CCOP(=S)(OCC)Oc1nc(Cl)n(C(C)C)n1` [Isazophos], for which the LC retention time was 10.8 min.

With `O=C(Nc1ccccc1)Nc1ccnc(Cl)c1` [Forchlorfenuron], the LC retention time was 8.95 min.

In the case of `CC1(C)SC2C(NC(=O)C(N)c3ccc(O)cc3)C(=O)N2C1C(=O)O` (centres undefined) [Amoxicillin], the LC retention time was 4.61 min.

As for `Clc1ccc(C2(Cn3cncn3)OCCO2)c(Cl)c1` [Azaconazole], the LC retention time was 9.01 min.

`CCCCCCCCSC(=O)Oc1cc(Cl)nnc1-c1ccccc1` [Pyridate]: the LC retention time was 14.3 min.

`CN1CCCC1c1cccnc1` (centres undefined) [Nicotine]: the LC retention time was 1.12 min.

Take `CNC(=O)N(C)c1nnc(C(C)(C)C)s1` [Tebuthiuron]: the LC retention time was 7.79 min.

As for `Nc1c(Cl)c(F)nc(OCC(=O)O)c1Cl` [Fluroxypyr], the LC retention time was 7.71 min.

`CCCOP(=S)(OCCC)SCC(=O)N1CCCCC1C` (centres undefined) [Piperophos]: the LC retention time is 12.3 min.

For the compound `CCOC(=O)C1C(OC(=O)c2ccccc2)CC2CCC1N2C` (centres undefined) [Cocaethylene], the LC retention time is 6.53 min.

In the case of `CCNc1nc(NC(C)(C)C)nc(SC)n1` [Terbutryn], the LC retention time was 9.91 min.

Take `Nc1ccc(S(=O)(=O)Nc2ncccn2)cc1` [Sulfadiazine]: the LC retention time is 2.09 min.

For the compound `CNC(=O)ON=CC(C)(C)S(C)(=O)=O` [Aldicarb sulfone], the LC retention time was 4.8 min.

For the compound `CON(C)C(=O)Nc1ccc(Br)cc1` [Metobromuron], the LC retention time is 8.53 min.

`COc1cc2c(c3c1C1CCC(=O)C1C(=O)O3)C1CCOC1O2` (centres undefined) [Aflatoxin B2]: the LC retention time was 7.55 min.

Consider `CCC(C)C1OC2(C=CC1C)CC1CC(CC=C(C)C(OC3CC(OC)C(OC4CC(OC)C(NC(C)=O)C(C)O4)C(C)O3)C(C)C=CC=C3COC4C(O)C(C)=CC(C(=O)O1)C34O)O2` (centres undefined) [Eprinomectin], for which the LC retention time is 15.1 min.

Turning to `COP(=S)(OC)Oc1c(Cl)cc(C)cc1Cl` [Tolclofos-methyl], the LC retention time is 12.1 min.

For `CCCCOC(=O)c1ccccc1C(=O)OCc1ccccc1` [Benzyl butyl phthalate], the LC retention time is 12.4 min.

With `O=C(O)c1cn(-c2ccc(F)cc2)c2cc(N3CCNCC3)c(F)cc2c1=O` [Sarafloxacin], the LC retention time is 5.12 min.

With `COCCc1ccc(OCC(O)CNC(C)C)cc1` (centres undefined) [Metoprolol], the LC retention time was 5.31 min.

As to `CN1C(=O)CN=C(c2ccccc2)c2cc(Cl)ccc21` [Diazepam], the LC retention time is 10.9 min.

As for `CC12C=CC(=O)C=C1CCC1C3CC(O)C(O)(C(=O)CO)C3(C)CC(O)C12F` (centres undefined) [Triamcinolone], the LC retention time was 6.95 min.

For `O=C(NC(=O)c1c(F)cccc1F)Nc1cc(Cl)c(Oc2ncc(C(F)(F)F)cc2Cl)c(Cl)c1` [Chlorfluazuron], the LC retention time is 13.9 min.

On to `CCCOCCN(C(=O)CCl)c1c(CC)cccc1CC` [Pretilachlor], for which the LC retention time is 12.5 min.

Turning to `COC(=O)c1cccc(C)c1S(=O)(=O)NC(=O)Nc1nc(OCC(F)(F)F)nc(N(C)C)n1` [Triflusulfuron-methyl], the LC retention time is 9.27 min.

Consider `Nc1cnn(-c2ccccc2)c(=O)c1Cl` [Chloridazon (Pyrazon)], for which the LC retention time was 4.82 min.

As for `CC12CCC(=O)C=C1CCC1C2C(O)CC2(C)C1CCC2(O)C(=O)CO` (centres undefined) [Hydrocortisone], the LC retention time is 8.53 min.

Turning to `CCNc1nc(NCC)[nH]c(=O)n1` [2-hydroxysimazine], the LC retention time was 3.33 min.

For `COP(=O)(OC)C(O)C(Cl)(Cl)Cl` (centres undefined) [Trichlorfon], the LC retention time is 4.7 min.

On to `CNC(=O)ON=C(C)SC` [Methomyl], for which the LC retention time is 3.09 min.

With `CC(C)(C)NCC(O)c1ccc(N)c(C#N)c1` (centres undefined) [Cimbuterol], the LC retention time was 2.78 min.

As for `CON(C)C(=O)Nc1ccc(Br)c(Cl)c1` [Chlorbromuron], the LC retention time is 10.1 min.

In the case of `COP(=O)(OC)OC=C(Cl)Cl` [Dichlorvos], the LC retention time is 7.31 min.

For the compound `CCC(C)C(=O)OC1CC(O)C=C2C=CC(C)C(CCC(O)CC(O)CC(=O)O)C21` (centres undefined) [Pravastatin], the LC retention time is 7.96 min.

`CC1(C)CCC(Cc2ccc(Cl)cc2)C1(O)Cn1cncn1` (centres undefined) [Metconazole]: the LC retention time was 11.9 min.

With `CN(C)CCCN1c2ccccc2Sc2ccc(Cl)cc21` [Chlorpromazine], the LC retention time was 10.3 min.

For `Cn1c([N+](=O)[O-])cnc1COC(N)=O` [Ronidazole], the LC retention time is 1.79 min.

On to `COc1ccc(NS(=O)(=O)c2ccc(N)cc2)nn1` [Sulfamethoxypyridazine], for which the LC retention time is 3.65 min.

Take `CC1=C(C(=O)O)N2C(=O)C(NC(=O)C(N)c3ccc(O)cc3)C2SC1` (centres undefined) [Cefadroxil]: the LC retention time is 4.91 min.

On to `COP(=S)(OC)SCn1nnc2ccccc2c1=O` [Azinphos-methyl], for which the LC retention time was 10.1 min.

For `CC(C)(C)Nc1nc(N)[nH]c(=O)n1` [Deethyl-2-hydroxy-terbuthylazine], the LC retention time was 3.24 min.

For the compound `CC12CCC(O)CC1=CCC1C2CCC2(C)C(O)CCC12` (centres undefined) [Androstenediol (AED)], the LC retention time is 12.9 min.

As to `CCCN(CCC)C(=O)SCc1ccccc1` [Prosulfocarb], the LC retention time is 12.6 min.

In the case of `CCOC(=O)c1ccccc1S(=O)(=O)NC(=O)Nc1nc(Cl)cc(OC)n1` [Chlorimuron ethyl], the LC retention time was 8.65 min.

`CCCC1CC(C(=O)NC(C(C)O)C2OC(SC)C(O)C(O)C2O)N(C)C1` (centres undefined) [Lincomycin]: the LC retention time was 3.56 min.

Turning to `CC(C)N(C(=O)SCC(Cl)=C(Cl)Cl)C(C)C` [Tri-allate], the LC retention time was 13.3 min.

For `CON(C)C(=O)Nc1ccc(Cl)c(Cl)c1` [Linuron], the LC retention time is 10.3 min.

Consider `CC1COc2c(N3CCN(C)CC3)c(F)cc3c(=O)c(C(=O)O)cn1c23` (centres undefined) [Ofloxacin], for which the LC retention time is 4.08 min.

Consider `CCn1cc(C(=O)O)c(=O)c2cc3c(cc21)OCO3` [Oxolinic acid], for which the LC retention time is 6.58 min.

For `CCOc1cc(Oc2ccc(C(F)(F)F)cc2Cl)ccc1[N+](=O)[O-]` [Oxyfluorfen], the LC retention time was 13.8 min.

Consider `Cc1c(Cl)cccc1Nc1ccccc1C(=O)O` [Tolfenamic acid], for which the LC retention time is 11 min.

Turning to `Cc1ccccc1C(=O)Nc1cccc(OC(C)C)c1` [Mepronil], the LC retention time is 10.4 min.

With `CNC(=O)Oc1cc(C)c(SC)c(C)c1` [Methiocarb], the LC retention time is 8.89 min.

The record behind these values is the RepoRT retention time repository (doi:10.1016/j.scitotenv.2015.08.078).
